The values below come from ChEMBL document CHEMBL3112532, “Synthesis, [¹⁸F] radiolabeling, and evaluation of poly (ADP-ribose) polymerase-1 (PARP-1) inhibitors for in vivo imaging of PARP-1 using positron emission tomography” (Bioorg Med Chem, 2014).

The structures appear in SMILES notation.

In series [1] the test system is Tumour. Nature of the series: Drug uptake in tumor of athymic nu/nu mouse xenografted with human MDA-MB-436 cells at 200 uCi measured at 60 mins by microPET image analysis in presence of 5,6-Dihydro-2-(4-(2-fluoroethoxy)phenyl)-imidazo[4,5,1-jk][1,4]benzodiazepin-7(4H)-one. It counts as ADME, Neoplasm. The following applies: 1 h. (In general: In xenograft studies the graft and the host belong to different species.)

Series [2] concerns Tumour. Put plainly: Drug uptake in tumor of athymic nu/nu mouse xenografted with human MDA-MB-231 cells at 200 uCi measured at 60 mins by microPET image analysis in presence of olaparib. The following applies: in vivo, 1 h. It counts as ADME, Neoplasm.
Series [3] concerns Tumour. Nature of the series: Drug uptake in tumor of athymic nu/nu mouse xenografted with human MDA-MB-436 cells at 200 uCi measured at 60 mins by microPET image analysis. It counts as ADME, Neoplasm. The following applies: 1 h.
The target of series [4] is Poly [ADP-ribose] polymerase 1 (Homo sapiens, UniProt P09874). Put plainly: Inhibition of PARP-1 (unknown origin) assessed as NAD+ consumption after 20 mins by fluorometric analysis in presence of activated DNA.
Chain of Poly [ADP-ribose] polymerase 1 (P09874 whole entry): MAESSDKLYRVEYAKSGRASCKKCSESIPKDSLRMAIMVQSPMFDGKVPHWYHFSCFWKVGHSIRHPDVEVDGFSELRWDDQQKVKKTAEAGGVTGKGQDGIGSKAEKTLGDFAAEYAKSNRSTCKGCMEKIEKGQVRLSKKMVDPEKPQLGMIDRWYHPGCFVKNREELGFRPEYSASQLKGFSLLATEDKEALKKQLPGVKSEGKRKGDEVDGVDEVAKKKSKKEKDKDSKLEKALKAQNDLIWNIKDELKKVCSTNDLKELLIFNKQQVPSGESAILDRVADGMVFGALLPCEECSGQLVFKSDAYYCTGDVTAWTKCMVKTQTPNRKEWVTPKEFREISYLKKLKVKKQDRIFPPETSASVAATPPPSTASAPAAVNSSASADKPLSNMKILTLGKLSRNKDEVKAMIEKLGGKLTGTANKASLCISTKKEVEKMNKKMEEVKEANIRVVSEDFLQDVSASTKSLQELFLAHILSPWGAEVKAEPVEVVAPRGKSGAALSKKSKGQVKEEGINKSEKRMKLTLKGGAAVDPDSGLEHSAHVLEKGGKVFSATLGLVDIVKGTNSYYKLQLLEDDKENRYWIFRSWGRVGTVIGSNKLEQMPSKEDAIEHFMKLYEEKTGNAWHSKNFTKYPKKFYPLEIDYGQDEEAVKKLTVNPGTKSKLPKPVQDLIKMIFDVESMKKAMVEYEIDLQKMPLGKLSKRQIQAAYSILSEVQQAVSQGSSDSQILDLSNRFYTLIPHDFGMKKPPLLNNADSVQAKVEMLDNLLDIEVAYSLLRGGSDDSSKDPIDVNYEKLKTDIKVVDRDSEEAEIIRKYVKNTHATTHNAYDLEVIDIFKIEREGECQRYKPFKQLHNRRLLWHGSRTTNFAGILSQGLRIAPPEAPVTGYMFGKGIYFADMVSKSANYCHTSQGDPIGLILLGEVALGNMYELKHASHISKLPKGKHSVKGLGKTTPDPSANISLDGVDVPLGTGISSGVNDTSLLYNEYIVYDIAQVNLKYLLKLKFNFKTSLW

As to `O=C1NCCn2c(-c3ccc(OCC[18F])cc3)nc3cccc1c32`, the Drug uptake entry in series [1] is reported as “Not Active”; in series [2], “Not Active”; in series [3], “Active”.
Take `O=C1NCCn2c(-c3ccc(OCCF)cc3)nc3cccc1c32`: in series [4], the IC50 was found to be 6.3 nM.

In general, IC50 refers to the point on the concentration scale where inhibition reaches its midpoint.
